Values of other authors in patent US20140328789A1, “pH-RESPONSIVE CELL SCAFFOLD AND METHOD OF USING SAME” (Research Foundation of the City University of New York, priority 2013, published 2014).

Settings: for pKa: cross-linking agent; for pKa1 Monomer: first pKa; for pKa2 Monomer: second pKa; for pKa3 Monomer: third pKa

Compound: C/C=C/C(=O)OC(=O)/C=C/C [Crotonic anhydride]
- pKa: pKa = 4.61

Compound: C=C(C)C(=O)OC(=O)C(=C)C [Methacrylic anhydride]
- pKa: pKa = 4.65

Compound: N[C@@H](CCC(=O)O)C(=O)O [glutamic acid]
- pKa1 Monomer: 2.2
- pKa2 Monomer: 4.25
- pKa3 Monomer: pKa3 = 9.67

Compound: albumin
- pKa Monomer: pKa = 7.4

Compound: C=C(C)C(=O)OCCOP(=O)([O-])OCC[N+](C)(C)C [2-methacryloyloxyethyl phosphorylcholine]
- pKa1 Monomer: pKa1 = 1.9

Compound: C=CC(=O)NC(C)C [N-isopropylacrylamide (NIPAM), N-isopropylacrylamide]
- pKa Monomer: pKa ≈ 6

Compound: C=C(CC(=O)O)C(=O)O [itaconic acid]
- pKa Monomer: pKa = 4.5

Compound: C=C(C)C(=O)OCCN [aminoethyl methacrylate (AEMA), aminoethyl methacrylate]
- pKa Monomer: pKa = 8.8

Compound: NCCCC[C@H](N)C(=O)O [lysine]
- pKa1 Monomer: 2.2
- pKa2 Monomer: 9.0
- pKa3 Monomer: pKa3 = 10.5

Compound: C=C(C)C(=O)OC1CC(C)(C)N([O])C(C)(C)C1 [TEMPO methacrylate]
- pKa Monomer: pKa = 5.5

Compound: C=C(C)C(=O)OCCN(C)C [N,N-Dimethylaminoethyl Methacrylate]
- pKa Monomer: pKa = 7.3-7.5

Compound: C=C(C)C(=O)OCCN(CC)CC [2-diethylaminoethyl methacrylate]
- pKa Monomer: pKa = 7.3
